According to ChEMBL document CHEMBL6182873, “Fungal dimeric xanthones as anticancer agents by novelly stimulating sodium-calcium exchanger 1” (Eur J Med Chem, 2025):
One block for each compound: values may come before it. The source made the active and inactive calls. The calls are words filed in the database; no cut-off is given here.

Columns and labels:
[1] = system: AGS; experiment: Anti-proliferative activity against human AGS cells assessed as inhibition of cell viability incubated for 48 hrs by CCK8 assay; type: functional, cell-based
[2] = system: GES1; experiment: Anti-proliferative activity against human GES1 cells; type: toxicity, cell-based
[3] = system: AGS; experiment: Potency index, ratio of cisplatin IC50 to test compound IC50 for anti-proliferative activity against human AGS cells assessed as inhibition of cell viability incubated for 48 hrs by CCK8 assay; type: functional
[4] = system: Gastric cancer cell; experiment: Anti-proliferative activity against human gastric cancer cells assessed as reduction in cell proliferation at 10 to 40 uM; type: functional, cell-based; conditions: dose 10-40 µM
[5] = target: Sodium/calcium exchanger 1 (Homo sapiens) (UniProt P32418); experiment: Activation of NCX1 in human AGS cells harboring shNCX1 assessed as increase in intracellular Fluo4-Ca2+ level at 5 uM in presence of extracellular Fluo4-Ca2+ by cell imaging analysis; type: cell-based
Sequence of Sodium/calcium exchanger 1 (Homo sapiens) (P32418 36-973 limits assumed): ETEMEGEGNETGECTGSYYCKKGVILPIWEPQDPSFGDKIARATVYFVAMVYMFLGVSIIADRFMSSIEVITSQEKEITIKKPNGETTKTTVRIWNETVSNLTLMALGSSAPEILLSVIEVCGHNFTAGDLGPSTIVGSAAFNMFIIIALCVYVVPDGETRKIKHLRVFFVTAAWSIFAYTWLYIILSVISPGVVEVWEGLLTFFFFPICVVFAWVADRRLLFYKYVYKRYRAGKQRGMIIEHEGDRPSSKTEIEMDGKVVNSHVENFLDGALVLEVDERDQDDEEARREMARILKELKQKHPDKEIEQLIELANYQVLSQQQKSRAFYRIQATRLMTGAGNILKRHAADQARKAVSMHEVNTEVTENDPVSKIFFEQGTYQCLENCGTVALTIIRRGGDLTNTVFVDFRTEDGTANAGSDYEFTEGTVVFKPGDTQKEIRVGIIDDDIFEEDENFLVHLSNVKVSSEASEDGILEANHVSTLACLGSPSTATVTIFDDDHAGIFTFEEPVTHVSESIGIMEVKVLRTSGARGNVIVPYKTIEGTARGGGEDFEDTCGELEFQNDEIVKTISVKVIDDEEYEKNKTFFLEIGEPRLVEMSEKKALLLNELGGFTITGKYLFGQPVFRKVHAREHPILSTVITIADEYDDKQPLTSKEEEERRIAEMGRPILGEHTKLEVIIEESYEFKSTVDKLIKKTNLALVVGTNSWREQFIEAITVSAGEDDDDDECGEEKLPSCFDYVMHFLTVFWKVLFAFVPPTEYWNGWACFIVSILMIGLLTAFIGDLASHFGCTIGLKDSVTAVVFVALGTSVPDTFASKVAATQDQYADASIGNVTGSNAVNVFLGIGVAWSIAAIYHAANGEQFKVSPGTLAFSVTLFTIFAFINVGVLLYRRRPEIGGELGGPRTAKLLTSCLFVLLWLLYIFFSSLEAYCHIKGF

[6] = target: Sodium/calcium exchanger 1 (Homo sapiens) (UniProt P32418); experiment: Activation of NCX1 in human AGS cells assessed as induction of membrane currents at 5 uM in presence of extracellular Fluo4-Ca2+ by cell imaging analysis; type: cell-based; conditions: filed as activator
[7] = target: Sodium/calcium exchanger 1 (Homo sapiens) (UniProt P32418); experiment: Activation of NCX1 in human AGS cells assessed as increase in intracellular Fluo4-Ca2+ level at 5 uM in presence of extracellular Fluo4-Ca2+/SN6 by cell imaging analysis; type: cell-based
[8] = target: Sodium/calcium exchanger 1 (Homo sapiens) (UniProt P32418); experiment: Activation of NCX1 in human AGS cells assessed as induction of membrane currents at 5 uM in presence of extracellular Fluo4-Ca2+/SN6 by cell imaging analysis; type: cell-based
[9] = target: Sodium/calcium exchanger 1 (Homo sapiens) (UniProt P32418); experiment: Activation of NCX1 in human DLD-1 cells assessed as increase in intracellular Fluo4-Ca2+ level at 5 uM in presence of extracellular Fluo4-Ca2+ by cell imaging analysis; type: cell-based
[10] = system: AGS; experiment: Induction of apoptosis in human AGS cells assessed as late apoptotic cells at 5 uM by Annexin V-FITC/PI staining based flow cytometry (reference value: 1.43 %); type: functional
[11] = system: B16; experiment: Activation of NCX1 in mouse B16 cells harboring shNCX1 assessed as increase in intracellular Fluo4-Ca2+ level at 5 uM in presence of extracellular Fluo4-Ca2+ by cell imaging analysis; type: cell-based
[12] = system: AGS; experiment: Inhibition of cell migration in human AGS cells at 5 uM by transwell assay; type: functional, cell-based
[13] = system: AGS; experiment: Induction of apoptosis in human AGS cells assessed as late apoptotic cells at 20 uM by Annexin V-FITC/PI staining based flow cytometry (reference value: 1.43 %); type: functional
[14] = system: B16; experiment: Antitumor activity against mouse B16 cells implanted in nude mouse at 2.5 to 5 mg/kg, ip; type: functional, organism-based; conditions: dose 2.5-5 mg/kg
[15] = system: AGS; experiment: Downregulation of beta-catenin level in human AGS cells at 5 uM in presence of SN 6 by Western blot analysis; type: functional, cell-based
[16] = system: AGS; experiment: Induction of apoptosis in human AGS cells assessed as early apoptotic cells at 20 uM by Annexin V-FITC/PI staining based flow cytometry (reference value: 4.25 %); type: functional
[17] = system: AGS; experiment: Downregulation of PI3K level in human AGS cells by Western blot analysis; type: functional, cell-based; conditions: dose <= 10.0 µM
[18] = system: AGS; experiment: Effect on ERK1/2 level in human AGS cells up to 10 uM by Western blot analysis; type: functional, cell-based
[19] = system: AGS; experiment: Downregulation of PI3K level in human AGS cells at 5 uM in presence of SN 6 by Western blot analysis; type: functional, cell-based
[20] = system: AGS; experiment: Induction of apoptosis in human AGS cells assessed as early apoptotic cells at 5 uM by Annexin V-FITC/PI staining based flow cytometry (reference value: 4.25 %); type: functional
[21] = system: AGS; experiment: Induction of apoptosis in human AGS cells assessed as viable cells at 5 uM by Annexin V-FITC/PI staining based flow cytometry (reference value: 94.1 %); type: functional; conditions: read-out: Activity
[22] = system: AGS; experiment: Downregulation of beta-catenin level in human AGS cells by Western blot analysis; type: functional, cell-based; conditions: dose <= 10.0 µM
[23] = system: AGS; experiment: Induction of cell cycle arrest in human AGS cells assessed as cell accumulation at S phase at 5 uM by PI staining based flow cytometry (reference value: 32.4 %); type: functional
[24] = system: AGS; experiment: Induction of apoptosis in human AGS cells assessed as necrotic cells at 20 uM by Annexin V-FITC/PI staining based flow cytometry (reference value: 0.20 %); type: functional
[25] = system: AGS; experiment: Induction of apoptosis in human AGS cells assessed as early apoptotic cells at 10 uM by Annexin V-FITC/PI staining based flow cytometry (reference value: 4.25 %); type: functional
[26] = target: Sodium/calcium exchanger 1 (Homo sapiens) (UniProt P32418); experiment: Activation of NCX1 in human AGS cells assessed as increase in intracellular Fluo4-Ca2+ level at 5 uM in presence of extracellular Fluo4-Ca2+ by cell imaging analysis; type: cell-based; conditions: filed as activator
[27] = system: B16; experiment: Antiproliferative activity against mouse B16 cells assessed as inhibition of cell viability; type: functional, cell-based
[28] = system: AGS; experiment: Induction of apoptosis in human AGS cells assessed as viable cells at 10 uM by Annexin V-FITC/PI staining based flow cytometry (reference value: 94.1 %); type: functional; conditions: read-out: Activity
[29] = system: AGS; experiment: Induction of apoptosis in human AGS cells assessed as viable cells at 20 uM by Annexin V-FITC/PI staining based flow cytometry (reference value: 94.1 %); type: functional; conditions: read-out: Activity
[30] = system: AGS; experiment: Induction of apoptosis in human AGS cells assessed as necrotic cells at 10 uM by Annexin V-FITC/PI staining based flow cytometry (reference value: 0.20 %); type: functional
[31] = system: AGS; experiment: Induction of apoptosis in human AGS cells assessed as late apoptotic cells at 10 uM by Annexin V-FITC/PI staining based flow cytometry (reference value: 1.43 %); type: functional
[32] = system: AGS; experiment: Induction of cell cycle arrest in human AGS cells assessed as cell accumulation at G2 phase at 5 uM by PI staining based flow cytometry (reference value: 25.7 %); type: functional
[33] = system: B16; experiment: Activation of NCX1 in mouse B16 cells assessed as increase in intracellular Fluo4-Ca2+ level at 5 uM in presence of extracellular Fluo4-Ca2+ by cell imaging analysis; type: cell-based; conditions: filed as activator
[34] = system: B16; experiment: Activation of NCX1 in mouse B16 cells assessed as increase in intracellular Fluo4-Ca2+ level at 5 uM in presence of extracellular Fluo4-Ca2+/SN 6 by cell imaging analysis; type: cell-based
[35] = system: AGS; experiment: Induction of apoptosis in human AGS cells assessed as necrotic cells at 5 uM by Annexin V-FITC/PI staining based flow cytometry (reference value: 0.20 %); type: functional
[36] = system: AGS; experiment: Downregulation of AKT level in human AGS cells by Western blot analysis; type: functional, cell-based; conditions: dose <= 10.0 µM
[37] = system: AGS; experiment: Inhibition of cell migration in human AGS cells at 5 uM incubated up to 24 hrs by scratch wound healing assay; type: functional, cell-based
[38] = system: AGS; experiment: Downregulation of AKT level in human AGS cells at 5 uM in presence of SN 6 by Western blot analysis; type: functional, cell-based
[39] = system: AGS; experiment: Induction of cell cycle arrest in human AGS cells assessed as cell accumulation at G1 phase at 5 uM by PI staining based flow cytometry (reference value: 41.9 %); type: functional

- IC50 ([1]; Homo sapiens, AGS, 48 h): 5.36 µM
Compound: CC(=O)OC[C@@]12Oc3c(-c4ccc5c(c4O)C(=O)C4=C(O)C[C@H](C)[C@H](OC(C)=O)[C@]4(CO)O5)ccc(O)c3C(=O)C1=C(O)C[C@H](C)[C@@H]2OC(C)=O (stereo in doubt; 2) [listing 1 of 2 here]
- Activity [2]: Non-toxic
- Ratio IC50 [3]: 2

Compound: CC(=O)OC[C@@]12Oc3c(-c4ccc5c(c4O)C(=O)C4=C(O)C[C@H](C)[C@H](OC(C)=O)[C@]4(CO)O5)ccc(O)c3C(=O)C1=C(O)C[C@H](C)[C@@H]2OC(C)=O (stereo in doubt; 2) [listing 2 of 2 here]
- Activity [4]: Active

- IC50 ([1]; ags): 3.89 µM
Compound: CC(=O)OC[C@@]12Oc3c(-c4ccc5c(c4O)C(=O)C4=C(O)C[C@H](C)[C@H](OC(C)=O)[C@]4(CO)O5)ccc(O)c3C(=O)C1=C(O)C[C@H](C)[C@@H]2OC(C)=O (stereo in doubt; 3) [listing 1 of 2 here]

Compound: CC(=O)O[C@H]1[C@@H](C)CC(O)=C2C(=O)c3c(O)ccc(-c4ccc(O)c5c4O[C@]4(CO)C(=C(O)C[C@H](C)[C@@H]4OC(C)=O)C5=O)c3O[C@]21CO
- IC50 ([1]; Homo sapiens, AGS, 48 h): 13.8 µM
- Activity [2]: Non-toxic
- Activity [4]: Active
- Ratio IC50 [3]: 2

Compound: CC(=O)OC[C@@]12Oc3ccc(-c4ccc5c(c4O)C(=O)C4=C(O)C[C@H](C)[C@H](OC(C)=O)[C@]4(CO)O5)c(O)c3C(=O)C1=C(O)C[C@H](C)[C@@H]2OC(C)=O
- IC50 ([1]; Homo sapiens, AGS, 48 h): 3.47 µM
- Activity [2]: Non-toxic
- Activity [4]: Active
- Ratio IC50 [3]: 2

- Activity [5]: inactive
- Activity [6]: Active
- Activity [7]: inactive
- Activity [8]: inactive
- Activity [9]: inactive
Compound: CC(=O)OC[C@@]12Oc3c(-c4ccc5c(c4O)C(=O)C4=C(O)C[C@H](C)[C@H](OC(C)=O)[C@]4(CO)O5)ccc(O)c3C(=O)C1=C(O)C[C@H](C)[C@@H]2OC(C)=O (stereo in doubt; 3) [listing 2 of 2 here]
- Activity [4]: Active

Compound: CC(=O)O[C@H]1[C@@H](C)CC(O)=C2C(=O)c3c(ccc(-c4ccc(O)c5c4O[C@]4(CO)C(=C(O)C[C@H](C)[C@@H]4OC(C)=O)C5=O)c3O)O[C@]21CO
- IC50 ([1]; Homo sapiens, AGS, 48 h): 3.06 µM
- Activity [2]: Non-toxic
- Activity [4]: Active
- Ratio IC50 [3]: 2

Compound: CC(=O)O[C@H]1[C@@H](C)CC(O)=C2C(=O)c3c(ccc(-c4ccc5c(c4O)C(=O)C4=C(O)C[C@H](C)[C@H](OC(C)=O)[C@]4(CO)O5)c3O)O[C@]21CO
- IC50 ([1]; Homo sapiens, AGS, 48 h): 3.45 µM
- Activity [2]: Non-toxic
- Activity [4]: Active
- Ratio IC50 [3]: 2

- IC50 ([1]; Homo sapiens, AGS, 48 h): 2.65 µM
Compound: CC(=O)O[C@H]1[C@@H](C)CC(O)=C2C(=O)c3c(O)ccc(-c4ccc5c(c4O)C(=O)C[C@](CO)([C@H]4OC(=O)C[C@@H]4C)O5)c3O[C@]21CO
- Activity [2]: Non-toxic
- Ratio IC50 [3]: 2

- IC50 ([1]; Homo sapiens, AGS, 48 h): 5.2 µM
- Activity [5]: inactive
- Activity [6]: Active
- Activity [7]: inactive
- Activity [8]: inactive
- Activity [26]: Active
- IC50 [27]: 5.36 µM
- Activity [9]: inactive
Compound: CC(=O)OC[C@@]12Oc3c(-c4ccc(O)c5c4O[C@]4(CO)C(=C(O)C[C@H](C)[C@@H]4OC(C)=O)C5=O)ccc(O)c3C(=O)C1=C(O)C[C@H](C)[C@@H]2OC(C)=O
- Activity [10]: 2.54%
- Activity [11]: inactive
- inhibition [12]: Active
- Activity [13]: 5.94%
- Activity [14]: Active; Activity Was Much Greater Than Cisplatin
- Activity [2]: Non-toxic
- Activity [15]: inactive
- Activity [16]: 16.6%
- Activity [17]: Dose-dependent-effect
- Activity [18]: No effect
- Activity [19]: inactive
- Activity [20]: 5.57%
- viability at 5 µM [21]: 91.8%
- Activity [22]: Dose-dependent-effect
- Activity [23]: 26.3%
- Activity [4]: Active
- Activity [24]: 0.18%
- Activity [25]: 4.24%
- viability at 10 µM [28]: 93.7%
- viability at 20 µM [29]: 77.3%
- Activity [30]: 0.094%
- Activity [31]: 2.01%
- Activity [32]: 24.9%
- Activity [33]: Active
- Activity [34]: inactive
- Activity [35]: 0.13%
- Ratio IC50 [3]: 2
- Activity [36]: Dose-dependent-effect
- inhibition [37]: Active
- Activity [38]: inactive
- Activity [39]: 48.8%

Compound: CC(=O)OC[C@@]12Oc3ccc(-c4ccc5c(c4O)C(=O)C4=C(O)C[C@H](C)[C@H](OC(C)=O)[C@]4(COC(C)=O)O5)c(O)c3C(=O)C1=C(O)C[C@H](C)[C@@H]2OC(C)=O
- IC50 ([1]; Homo sapiens, AGS, 48 h): 6.23 µM
- Activity [2]: Non-toxic
- Activity [4]: Active
- Ratio IC50 [3]: 2
